The text below walks through data of patent US6069166A, “Fused heterocyclic benzenecarboxamide derivatives and PGD2 antagonists comprising them” (Shionogi & Co., Ltd., priority 1996, dated 2000).

The target of experiment [1] is T1, PGD2 Receptor (Homo sapiens, UniProt Q13258).
T1 construct: A suspension adjusted to contain platelet at a final concentration of; endogenous in cells; host or cells: washed human platelets from peripheral blood of a healthy volunteer
T1 sequence (Q13258 1-359): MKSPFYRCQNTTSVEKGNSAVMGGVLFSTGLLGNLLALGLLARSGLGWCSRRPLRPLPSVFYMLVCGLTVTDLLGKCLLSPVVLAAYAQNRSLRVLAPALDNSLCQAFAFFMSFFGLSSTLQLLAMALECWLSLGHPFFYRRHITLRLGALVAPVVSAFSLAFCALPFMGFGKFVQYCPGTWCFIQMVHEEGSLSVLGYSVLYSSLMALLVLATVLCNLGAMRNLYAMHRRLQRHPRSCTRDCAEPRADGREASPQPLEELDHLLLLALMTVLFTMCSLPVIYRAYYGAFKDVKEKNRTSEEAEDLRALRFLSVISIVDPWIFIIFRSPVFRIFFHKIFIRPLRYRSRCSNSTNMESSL
As to the kind of experiment: Binding to PGD2 receptor (human platelet membrane fraction, [3H]PGD2). The conditions noted are these: human platelet membrane fraction 0.1 mg, 5 nM [3H]PGD2, 4° C., 90 min, pH 7.4; read-out: IC50 (inhibition of [3H]PGD2 binding). As for the experimental part:
Experiment 1 Binding to PGD2 Receptor
(1) Preparation of Human Platelet Membrane Fraction
Blood sample was obtained using a plastic syringe containing 3.8% sodium citrate from the vein of healthy volunteers (adult male and female), put into a plastic test tube and mixed gently by rotation. The sample was then centrifuged at 1800 rpm, 10 min at room temperature, and the supernatant containing PRP (platelet-rich plasma) was collected. The PRP was re-centrifuged at […], 22 min at room temperature to obtain platelets. The platelets were homogenized using a homogenizer (Ultra-Turrax) followed by centrifugation 3 times at 20,000 rpm, 10 min at 4° C. to obtain a platelet membrane fraction. After protein determination, the membrane fraction was adjusted to 2 mg/ml and preserved in a refrigerator at -80° C. until use.
(2) Binding to PGD2 Receptor
To a binding-reaction solution (50 mM Tris/HCl, pH 7.4, 5 mM MgCl2) (0.2 ml) were added the human platelet membrane fraction (0.1 mg) and 5 nM [^3 H]PGD2 (115Ci/mmol), and reacted at 4° C. for 90 min. After the reaction completed, the reaction mixture was filtered through a glass fiber filter paper, washed several times with cooled saline, and measured the radioactivity retained on the filter paper. The specific binding was calculated by subtracting the non-specific binding (the binding in the presence of 10 μM PGD2) from the total binding. The inhibitory activity of each compound was expressed as the concentration required for 50% inhibition (IC50), which was determined by depicting a substitution curve by plotting the binding ratio (%) in the presence of each compound, where the binding ratio in the absence of a test compound is 100%.

Experiment [2] concerns the target T1, PGD2 Receptor. As to the kind of experiment: Antagonistic activity against PGD2 receptor using human platelet (PGD2-induced cAMP increase). As to conditions: human platelets 5×10^8/ml, 0.1 μM PGD2, IBMX 0.5 mM, cAMP by radioimmunoassay; read-out: IC50 (inhibition of cAMP increased by PGD2). Format: cell-based. As for the experimental part:
Experiment 2 Evaluation of Antagonistic Activity Against PGD2 Receptor Using Human Platelet Peripheral blood was obtained from a healthy volunteer using a syringe in which 1/9 volume of citric acid/dextrose solution has been previously added. The syringe was subjected to centrifugation at 180 g for 10 min to obtain the supernatant (PRP:platelet rich plasma). The resultant PRP was washed 3 times with a washing buffer and the number of platelet was counted with a micro cell counter. A suspension adjusted to contain platelet at a final concentration of 5×10^8 /ml was warmed at 37° C., and then subjected to the pre-treatment with 3-isobutyl-1-methylxanthine (0.5 mM) for 5 min. To the suspension was added a test compound diluted at various concentration. Ten-minute later, the reaction was induced by the addition of 0.1 μM PGD2 and, 2-minute later, stopped by the addition of hydrochloric acid. The platelet was destroyed with an ultrasonic homogenizer. After centrifugation, the cAMP in the supernatant was determined by radioimmunoassay. PGD2 receptor antagonism of a drug was evaluated as follows. The inhibition rate regarding cAMP increased by the addition of PGD2 was determined at individual concentration, and then the concentration of the drug required for 50% inhibition (IC50) was calculated.

Experiment [3] has as its system nasal blockage (intranasal pressure). As to the kind of experiment: Nasal blockage model in sensitized guinea pigs (intranasal pressure after OVA challenge). The conditions noted are these: oral, 60 min before antigen exposure; AUC of intranasal pressure 0-30 min vs vehicle; dose not given. It is filed as in vivo, Hartley male guinea pig. As for the experimental part: Experiment 3 Experiment Using Nasal Blockage Model
The method used for measuring the intranasal pressure for evaluating the anti-nasal blockage using guinea pigs is described below.
A 1% ovalbumin (OVA) solution was treated with an ultrasonic nebulizer to obtain an aerosol. Hartley male guinea pig was sensitized by inhaling twice the aerosol for 10 min at one-week interval. Seven-day after the sensitization, the guinea pig was exposed to an antigen to initiate the reaction. Briefly, the trachea was incised under the anesthesia with pentobarbital (30 mg/kg. i.p.) and cannulas were inserted into the trachea at the pulmonary and nasal cavity sides. The canal inserted at the pulmonary side was connected with an artificial respirator that provides 4 ml air 60 times/min. After arresting the spontaneous respiration of the guinea pig with Gallamin (2 mg/kg, i.v.), air was supplied to the snout side with an artificial respirator at the frequency of 70 times/min, and the flow rate of 4 ml air/time, and the atmospheric pressure required for the aeration was measured by the use of a transducer fitted at the branch. The measurement was used as a parameter of the nasal cavity resistance. The exposure of an antigen was carried out by generating aerosol of 3% OVA solution for 3 min between the respirator and the nasal cavity cannula. […]

What is called IC50 is the point on the concentration scale where inhibition reaches its midpoint. Take `CC1(C)[C@H]2C[C@H](C/C=C\CCCC(=O)O)[C@@H](NC(=O)c3cccc4ccsc34)[C@@H]1C2` [IA-a-1]: the IC50 at PGD2 Receptor [1] was found to be 26 nM; on PGD2 Receptor [2] it was 42 nM. Further, the “Inhibitory Rate (%)” value in experiment [3] was found to be 80%.
As for `Cc1csc2c(C(=O)N[C@@H]3[C@@H](C/C=C\CCCC(=O)O)C[C@H]4C[C@@H]3C4(C)C)cccc12` [IA-a-4], the IC50 came out at 11 nM on PGD2 Receptor [1] and 150 nM at PGD2 Receptor [2].
The matching figures for `CC1(C)[C@H]2C[C@H](C/C=C\CCCC(=O)O)[C@@H](NC(=O)c3cccc4c(Br)csc34)[C@@H]1C2` [IA-a-7]: 1.2 nM and 11 nM.
Consider `COc1csc2c(C(=O)N[C@@H]3[C@@H](C/C=C\CCCC(=O)O)C[C@H]4C[C@@H]3C4(C)C)cccc12` [IA-a-9], for which the IC50 on PGD2 Receptor [1] came to 0.41 nM; on PGD2 Receptor [2] it was 4.4 nM.
